Laboratory results published in US9169255B2, “Caffeinated compounds and compositions for treatment of amyloid diseases and synucleinopathies” (ProteoTech Inc, priority 2011, dated 2015).

Columns and labels:
Assay type in all cases: biochemical
α-synuclein fibrils = biological target: T1, α-synuclein fibrils (Homo sapiens, UniProt P37840); test: Thioflavin T fluorometry, disruption of pre-formed α-synuclein fibrils; conditions: 2-day incubation
T1 construct: purchased rPeptide, Bogart, Calif
Protocol: In this set of studies, the efficacy of certain compounds provided herein to cause a disassembly/disruption/disaggregation of pre-formed fibrils of Parkinson's disease (i.e. consisting of α-synuclein fibrils) was analyzed. For the studies described below in Parts A and B, 69 μM of α-synuclein (rPeptide, Bogart, Calif.) was first incubated at 37° C. for 4 days in 20 mM sodium acetate buffer at pH 4 with circular shaking (1,300 rpm) to cause α-synuclein aggregation and fibril formation.
In one study, Thioflavin T fluorometry was used to determine the effects of the compounds on α-synuclein fibrils. […] In this assay Thioflavin T binds specifically to fibrillar protein, and this binding produces a fluorescence enhancement at 485 nm that is directly proportional to the amount of fibrils formed.
Following initial α-synuclein fibrilization as described above, the α-synuclein (6.9 μM) mixture was then incubated at 37° C. for 2 days with shaking (200 rpm), either alone, or in the presence of one of the compounds (at test compound:α-synuclein molar ratios of 10:1, 1:1, 0.1:1, and 0.01:1) in phosphate-buffered saline, pH 7.4+0.02% sodium azide. Following 2 days of co-incubation, 50 μl (5 μg) of each incubation mixture was transferred into a 96-well microtiter plate containing 150 μl of distilled water and 50 μl of a Thioflavin T solution (i.e. 500 μM Thioflavin T in 250 mM phosphate buffer, pH 6.8). The final concentration of Thioflavin T reagent is 100 μM in 50 mM phosphate buffer, pH 6.8. The fluorescence was read at 485 nm (444 nm excitation wavelength) using an ELISA plate fluorometer. Subtraction of the signal obtained from a diluted reaction (blank) containing buffer alone or compound alone at a concentration equivalent to that of its corresponding α-synuclein-containing reaction was used to quantitate the amount of Thioflavin T fluorescence in each α-synuclein-containing reaction that is proportional to the protein fibril content in that reaction.

Aβ 1-42 [1] = biological target: T2, Aβ 1-42 (Homo sapiens, UniProt P05067); test: Thioflavin T fluorometry, inhibition of β-sheet formation of non-fibrillar Aβ 1-42; design: pre-fibrillized human Aβ 1-42 (rPeptide); purchased rPeptide; conditions: for Thioflavin T fluorometry-% Inhibition: 24 hours
Protocol: To test whether the compounds can inhibit β-sheet formation of Aβ, the same assay as described in Example 5 was utilized, but the Aβ was prepared so that it is in a non-fibrillar state at the start of the assay. To achieve this non-fibrillar state, lyophilized human Aβ 1-42 (rPeptide) was dissolved to 1 mg/mL (220 μM) using 2 mM NaOH and the pH was adjusted to 10.5 with small (μL) additions of 1M NaOH. The clear solution was then frozen, re-lyophilized, and dissolved in a buffer containing 9.5 mM phosphate, 137 mM sodium chloride and 2.7 mM potassium chloride (phosphate-buffered saline; PBS) to a concentration of 2 mg/mL (440 μM) Aβ. […] The reactions containing Aβ+test compounds (or Aβ+PBS as a control for Aβ aggregation) were then incubated for 24 hours, the incubation mixtures were diluted 1:20 to 0.05 mg/mL Aβ and 50 μL of each diluted incubation mixture was transferred into a 96-well microtiter plate containing 150 μL of distilled water and 50 μL of a Thioflavin T solution (i.e. 500 μM Thioflavin T in 250 mM phosphate buffer, pH 6.8). The final concentration of Aβ was 2.2 μM and the concentration of Thioflavin T reagent was 100 μM in 50 mM phosphate buffer, pH 6.8. The fluorescence was read at 485 nm (444 nm excitation wavelength) using an ELISA plate fluorometer after subtraction with PBS buffer alone or compound alone, as blank.

Aβ 1-42 [2] = biological target: T2, Aβ 1-42; test: Circular dichroism (CD) spectroscopy, inhibition of β-sheet formation of Aβ; conditions: for magnitude of the change of the ellipticity minimum at 218 nm relative to Aβ alone: 24 hours of incubation, at appropriate concentrations; for Circular Dichroism Spectroscopy -% Inhibition: 24 hours
Protocol: For this purpose, the Aβ reactions that were used in the Thioflavin T fluorometry assay (Part A in this Example) were assessed at 24 hours of aggregation. Aβ alone was also assessed by CD spectral analysis at t=0, prior to aggregation, (t=0, unfolded reference control). After 24 hours, reactions were diluted 20-fold in PBS and a CD spectrum for each reaction was acquired on a Jasco J-810 spectropolarimeter using a 0.1 cm path length cell. All spectra were recorded with a step size of 0.1 nm, a bandwidth of 1 nm, and an Aβ concentration of 0.05 mg/ml. The spectra were trimmed at the shortest wavelength that still provided a dynode voltage less than 600V. The trimmed spectra were then subjected to a data processing routine beginning with noise reduction by Fourier transform followed by subtraction of a blank spectrum (vehicle only without Aβ). These blank corrected spectra were then zeroed at 260 nm and the units converted from millidegrees to specific ellipticity.
Percent β-sheet was determined from processed spectra using the ellipticity minimum value at approximately 218 nm and referencing to a scale normalized to nearly fully folded and unfolded reference values, consistent with previous reports (Ramirez-Alvarado et al., J. Mol. Biol., 273:898-912, 1997; Andersen et al., J. Am. Chem. Soc., 121:9879-9880, 1999). The fully folded reference value was found by performing the described calculation on the spectrum of Aβ fibrillized for 24 hours (complete fibrillization), and assigning this difference the arbitrary value of 100% β-sheet. The unfolded reference was provided by the spectrum from the same sample at the initial time point (t=0) and ascribing the difference found here the arbitrary value of 0% β-sheet. These percent β-sheet values were then used to provide the respective relative % inhibition of β-sheet induced by the compounds at given molar ratio of test compound:Aβ.

[3] = compound:peptide molar ratio 0.01:1
[4] = compound:peptide molar ratio 0.1:1
[5] = compound:peptide molar ratio 1:1
[6] = compound:peptide molar ratio 10:1

T2 sequence (P05067 672-713 limits assumed): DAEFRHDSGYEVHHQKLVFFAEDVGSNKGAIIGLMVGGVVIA

Molecule	Thioflavin T fluorometry-% Inhibition (α-synuclein fibrils; [3]) [%]	Thioflavin T fluorometry-% Inhibition (α-synuclein fibrils; [4]) [%]	Thioflavin T fluorometry-% Inhibition (α-synuclein fibrils; [5]) [%]	Thioflavin T fluorometry-% Inhibition (α-synuclein fibrils; [6]) [%]	Thioflavin T fluorometry-% Inhibition (Aβ 1-42 [1]; compound:Aβ molar ratio 5:1) [%]	Thioflavin T fluorometry-% Inhibition (Aβ 1-42 [1]; compound:Aβ molar ratio 10:1) [%]	inhibition of Aβ aggregation (Thioflavin T fluorometry) (Aβ 1-42 [1]; concentrations tested 50:1, 10:1 and 1:1)	magnitude of the change of the ellipticity minimum at 218 nm relative to Aβ alone (Aβ 1-42 [2])	Thioflavin T fluorometry-% Inhibition (Aβ 1-42 [1]; compound:Aβ molar ratio 1:1) [%]	Circular Dichroism Spectroscopy -% Inhibition (Aβ 1-42 [2]; compound:Aβ molar ratio 0.5:1) [%]	Circular Dichroism Spectroscopy -% Inhibition (Aβ 1-42 [2]; compound:Aβ molar ratio 1:1) [%]	Circular Dichroism Spectroscopy -% Inhibition (Aβ 1-42 [2]; compound:Aβ molar ratio 5:1) [%]	Circular Dichroism Spectroscopy -% Inhibition (Aβ 1-42 [2]; compound:Aβ molar ratio 10:1) [%]	inhibition of β-sheet formation in Aβ (CD) (Aβ 1-42 [2]; test compound:Aβ molar ratios ≧5:1)
1,3-dimethyl-7-(3′,4′-dibenzyloxy)benzyl-8-(3′,4′-dihydroxyphenyl)xanthine [PD-154]	7	10	25	43	0	33								
Cn1c(=O)c2c(ncn2C)n(C)c1=O [Caffeine, reference compound]							failed to inhibit	no effect						
Cn1cnc2c1c(=O)n(Cc1ccc(O)c(O)c1)c(=O)n2Cc1ccc(O)c(O)c1 [PD-150, 7-Methyl-1,3-bis(3′,4′-dihydroxy)benzylxanthine]	0	0	48	84		93		reduced	23	40	42	69	62	at least 62%
Cn1c(=O)n(Cc2ccc(O)c(O)c2)c(=O)c2c1ncn2Cc1ccc(O)c(O)c1 [PD-151, 3-Methyl-1,7-bis(3′,4′-dihydroxybenzyl)xanthine]	4	15	56	89		87		reduced	9	38	43	66	67	
Cn1c(=O)c2c(ncn2Cc2ccc(O)c(O)c2)n(Cc2ccc(O)c(O)c2)c1=O [PD-152]	0	4	52	86	23	61		reduced		26	42	35	57	
Cn1c(=O)c2c(nc(-c3ccc(O)c(O)c3)n2C)n(C)c1=O [PD-153, 1,3,7-trimethyl-8-(3′,4′-dihydroxyoxyphenyl)xanthine]	7	17	18	37				reduced				8	24	
